Reference: US11919902B2, “Aryl-bipyridine amine derivatives as phosphatidylinositol phosphate kinase inhibitors” (HiberCell, Inc., priority 2017, dated 2024)

Legend:
[1] = molecular target: T1, PIP4K2A (full length protein, SignalChem) (Homo sapiens, UniProt P48426); experiment: Kinase Assay PIP4K2 A (Sprint); ADP-Glo biochemical assay; conditions: Table 2; compounds listed under IC50 range headings
T1 construct: 4 nM PIP4K2A (full length protein, SignalChem); purchased SignalChem
T1 sequence (P48426 1-406): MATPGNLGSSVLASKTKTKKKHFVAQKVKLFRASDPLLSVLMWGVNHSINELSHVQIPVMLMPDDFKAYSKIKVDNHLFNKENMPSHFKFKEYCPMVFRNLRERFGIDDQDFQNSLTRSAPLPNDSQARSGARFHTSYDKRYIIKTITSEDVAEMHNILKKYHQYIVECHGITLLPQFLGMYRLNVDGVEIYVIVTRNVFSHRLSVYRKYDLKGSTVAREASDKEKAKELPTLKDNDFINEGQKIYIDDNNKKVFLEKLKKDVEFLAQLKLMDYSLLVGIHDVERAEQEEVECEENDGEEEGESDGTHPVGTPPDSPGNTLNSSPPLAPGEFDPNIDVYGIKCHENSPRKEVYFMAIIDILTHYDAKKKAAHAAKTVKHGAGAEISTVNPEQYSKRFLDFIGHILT
How it was run: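 Compounds (10-point, 3-fold dilutions) were pre-incubated 15 min at RT with an enzyme/substrate mix of 4 nM full-length PIP4K2A and 100 μM PI(5)P diC8 in 20 mM MOPS pH 7.2, 25 mM MgCl2, 0.005% Tween 20. A 60 μM ATP solution was added, reaction 1 h RT; ADP read by ADP-Glo luminescence, IC50 fitted from % inhibition vs DMSO.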

GST tagged PIP4KtypeIIB = molecular target: T2, GST tagged PIP4KtypeIIB (Homo sapiens, UniProt P78356); experiment: Trans-FI P kinase assay PIP4K2B (PIP4KtypeIIB inhibition assay); assay type: biochemical; conditions: Table 4; compounds listed under IC50 range headings; 100 uM GTP, 5 nM PIP4KIIB; read-out: Trans-FI P kinase assays: PIP4K2B IC50
T2 construct: made in house; host or cells: E. coli
T2 sequence (P78356 1-416): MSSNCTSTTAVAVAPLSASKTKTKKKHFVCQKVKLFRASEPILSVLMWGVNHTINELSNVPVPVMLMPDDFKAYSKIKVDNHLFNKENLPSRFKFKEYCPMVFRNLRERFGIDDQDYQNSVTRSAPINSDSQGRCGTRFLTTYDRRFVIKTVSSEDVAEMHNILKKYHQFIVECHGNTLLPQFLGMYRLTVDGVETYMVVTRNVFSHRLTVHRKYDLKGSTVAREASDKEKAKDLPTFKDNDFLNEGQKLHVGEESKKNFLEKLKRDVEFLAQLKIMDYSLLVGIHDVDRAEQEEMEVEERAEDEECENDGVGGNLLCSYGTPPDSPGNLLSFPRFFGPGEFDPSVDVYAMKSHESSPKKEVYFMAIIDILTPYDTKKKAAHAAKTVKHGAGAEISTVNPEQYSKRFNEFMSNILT
How it was run: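 Purified GST-PIP4KIIB (5 nM final), 1 h preincubation with compound at 27 C, then 2 h reaction with 100 uM GTP and 80 uM PI5P plus DOPE carrier lipid in pH 7.3 HEPES/MgCl2/Triton buffer with 5% DMSO. GDP read by Transcreener FI fluorescence against a calibration curve; IC50 from % no-inhibitor activity vs log concentration.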

GST tagged PIP4KtypeIIA = molecular target: T3, GST tagged PIP4KtypeIIA (Homo sapiens, UniProt P48426); experiment: ADP-glo kinase assay PIP4K 2A (PIP4KtypeIIA inhibition assay); assay type: biochemical; conditions: Table 3; compounds listed under IC50 range headings; 10 uM ATP, 0.5 nM PIP4KIIA
T3 construct: made in house; host or cells: E. coli
T3 sequence (P48426 1-406): T1 sequence (P48426 1-406)
How it was run: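 E. coli-expressed GST-PIP4KtypeIIA (0.5 nM final) was preincubated 1 h at 27 °C with compound (up to 4.8 μM, 5% DMSO) in PI5P/DOPE lipid in 50 mM HEPES pH 7.3 with 10 mM MgCl2. The reaction was started with 10 μM ATP (final) and run 1 h. ADP was read by ADP-Glo luminescence via a calibration curve, and IC50 was taken from % residual activity.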

Structure (SMILES)	IC50 [1] [nM]	IC50 (GST tagged PIP4KtypeIIB) [nM]	IC50 (GST tagged PIP4KtypeIIA) [nM]
CN(C)C(=O)c1ccc(-c2cc(-c3cnc4c(c3)c(-c3cccnc3)nn4C)cnc2N)nc1 [Example 123, 2′-amino-N,N-dimethyl-5′-(1-methyl-3-(pyridin-3-yl)-1H-pyrazolo[3,4-b]pyridin-5-yl)-[2,3′-bipyridine]-5-carboxamide]	100 to 1000	> 5000	1000 to 2500
CN(C)C(=O)c1ccc(-c2cc(-c3cnc4c(c3)c(-c3cncnc3)nn4C)cnc2N)nc1 [Example 124, 2′-amino-N,N-dimethyl-5′-(1-methyl-3-(pyrimidin-5-yl)-1H-pyrazolo[3,4-b]pyridin-5-yl)-[2,3′-bipyridine]-5-carboxamide]	1000 to 2500	> 5000	> 5000
CN(C)C(=O)c1ccc(-c2cc(-c3cnc4c(c3)c(-c3cncs3)cn4C)cnc2N)nc1 [Example 125, 2′-amino-N,N-dimethyl-5′-(1-methyl-3-(thiazol-5-yl)-1H-pyrrolo[2,3-b]pyridin-5-yl)-[2,3′-bipyridine]-5-carboxamide]	100 to 1000	2500 to 5000	1 to 10
CN(C)C(=O)c1ccc(-c2cc(-c3ccnc4[nH]c(C(=O)N5CCOCC5)cc34)cnc2N)nc1 [Example 128, 2′-amino-N,N-dimethyl-5′-(2-(morpholine-4-carbonyl)-1H-pyrrolo[2,3-b]pyridin-4-yl)-[2,3′-bipyridine]-5-carboxamide]	100 to 1000	100 to 1000	1000 to 2500
CN(C)C(=O)c1ccc(-c2cc(-c3ccnc4[nH]c(C(=O)N5CC(C(N)=O)C5)cc34)cnc2N)nc1 [Example 130, 2′-amino-5′-(2-(3-carbamoylazetidine-1-carbonyl)-1H-pyrrolo[2,3-b]pyridin-4-yl)-N,N-dimethyl-[2,3′-bipyridine]-5-carboxamide]	100 to 1000	100 to 1000	100 to 1000
CN(C)C(=O)c1ccc(-c2cc(-c3ccnc4[nH]c(C(=O)NCc5ccccc5)cc34)cnc2N)nc1 [Example 134, 4-(2′-amino-5-(dimethylcarbamoyl)-[2,3′-bipyridin]-5′-yl)-N-benzyl-1H-pyrrolo[2,3-b]pyridine-2-carboxamide]	5 to 100	10 to 100	100 to 1000
CN(C)C(=O)c1ccc(-c2cc(-c3ccnc4[nH]c(C(=O)NCc5ccncc5)cc34)cnc2N)nc1 [Example 135, 4-(2′-amino-5-(dimethylcarbamoyl)-[2,3′-bipyridin]-5′-yl)-N-(pyridin-4-ylmethyl)-1H-pyrrolo[2,3-b]pyridine-2-carboxamide]	5 to 100	10 to 100	100 to 1000
CN(C)C(=O)c1ccc(-c2cc(-c3ccnc4[nH]c(C(=O)NCc5cccnc5)cc34)cnc2N)nc1 [Example 136, 4-(2′-amino-5-(dimethylcarbamoyl)-[2,3′-bipyridin]-5′-yl)-N-(pyridin-3-ylmethyl)-1H-pyrrolo[2,3-b]pyridine-2-carboxamide]	5 to 100	10 to 100	100 to 1000
Nc1ncc(-c2ccnc3[nH]c(C(=O)NCC(F)(F)F)cc23)cc1-c1ccc(C(=O)NCC(F)(F)F)cn1 [Example 139, 4-(2′-amino-5-((2,2,2-trifluoroethyl)carbamoyl)-[2,3′-bipyridin]-5′-yl)-N-(2,2,2-trifluoroethyl)-1H-pyrrolo[2,3-b]pyridine-2-carboxamide]	< 5000	2500 to 5000	> 5000
CN(C)C(=O)c1ccc(-c2cc(-c3ccnc4[nH]c(C(=O)N5CCNCC5)cc34)cnc2N)nc1 [Example 140, 2′-amino-N,N-dimethyl-5′-(2-(piperazine-1-carbonyl)-1H-pyrrolo[2,3-b]pyridin-4-yl)-[2,3′-bipyridine]-5-carboxamide]	100 to 1000	100 to 1000	100 to 1000

Further lines, results first:

IC50 [1] [nM]	IC50 (GST tagged PIP4KtypeIIB) [nM]	IC50 (GST tagged PIP4KtypeIIA) [nM]	Structure (SMILES)
100 to 1000	100 to 1000	100 to 1000	CN(C)C(=O)c1ccc(-c2cc(-c3ccnc4cc(N(C)C)ccc34)cnc2N)nc1 [Example 110, 2′-amino-5′-(7-(dimethylamino)quinolin-4-yl)-N,N-dimethyl-[2,3′-bipyridine]-5-carboxamide]
100 to 1000	100 to 1000	100 to 1000	CN(C)C(=O)c1ccc(-c2cc(-c3ccnc4ncccc34)cnc2N)nc1 [Example 111, 2′-amino-N,N-dimethyl-5′-(1,8-naphthyridin-4-yl)-[2,3′-bipyridine]-5-carboxamide]
5 to 100	100 to 1000	100 to 1000	CN(C)C(=O)c1ccc(-c2cc(-c3ccnc4[nH]c(=O)[nH]c34)cnc2N)nc1 [Example 113, 2′-amino-N,N-dimethyl-5′-(2-oxo-2,3-dihydro-1H-imidazo[4,5-b]pyridin-7-yl)-[2,3′-bipyridine]-5-carboxamide]
< 5000	> 5000	> 5000	CN(C)C(=O)c1ccc(-c2cc(-c3ccnc4cccc(C#N)c34)cnc2N)nc1 [Example 118, 2′-amino-5′-(5-cyanoquinolin-4-yl)-N,N-dimethyl-[2,3′-bipyridine]-5-carboxamide]
< 5000	> 5000	> 5000	CN(C)C(=O)c1ccc(-c2cc(-c3cccnc3N)cnc2N)nc1 [Example 120, 2′,2″-diamino-N,N-dimethyl-[2,3′:5′,3″-terpyridine]-5-carboxamide]
5 to 100	10 to 100	10 to 100	COC(=O)c1cc2c(-c3cnc(N)c(-c4ccc(C(=O)N(C)C)cn4)c3)ccnc2[nH]1 [Example 126, methyl 4-(2′-amino-5-(dimethylcarbamoyl)-[2,3′-bipyridin]-5′-yl)-1H-pyrrolo[2,3-b]pyridine-2-carboxylate]
5 to 100	10 to 100	100 to 1000	CN(C)C(=O)c1ccc(-c2cc(-c3ccnc4[nH]c(C(=O)N(C)C)cc34)cnc2N)nc1 [Example 127, 4-(2′-amino-5-(dimethylcarbamoyl)-[2,3′-bipyridin]-5′-yl)-N,N-dimethyl-1H-pyrrolo[2,3-b]pyridine-2-carboxamide]
100 to 1000	100 to 1000	100 to 1000	CN(C)C(=O)c1ccc(-c2cc(-c3ccnc4[nH]c(C(=O)N5CC(O)C5)cc34)cnc2N)nc1 [Example 129, 2′-amino-5′-(2-(3-hydroxyazetidine-1-carbonyl)-1H-pyrrolo[2,3-b]pyridin-4-yl)-N,N-dimethyl-[2,3′-bipyridine]-5-carboxamide]
100 to 1000	10 to 100	100 to 1000	CC(C)CNC(=O)c1cc2c(-c3cnc(N)c(-c4ccc(C(=O)N(C)C)cn4)c3)ccnc2[nH]1 [Example 131, 4-(2′-amino-5-(dimethylcarbamoyl)-[2,3′-bipyridin]-5′-yl)-N-isobutyl-1H-pyrrolo[2,3-b]pyridine-2-carboxamide]
100 to 1000	10 to 100	100 to 1000	COCCNC(=O)c1cc2c(-c3cnc(N)c(-c4ccc(C(=O)N(C)C)cn4)c3)ccnc2[nH]1 [Example 132, 4-(2′-amino-5-(dimethylcarbamoyl)-[2,3′-bipyridin]-5′-yl)-N-(2-methoxyethyl)-1H-pyrrolo[2,3-b]pyridine-2-carboxamide]
100 to 1000	10 to 100	100 to 1000	CN(C)C(=O)c1ccc(-c2cc(-c3ccnc4[nH]c(C(=O)NCC(F)(F)F)cc34)cnc2N)nc1 [Example 138, 4-(2′-amino-5-(dimethylcarbamoyl)-[2,3′-bipyridin]-5′-yl)-N-(2,2,2-trifluoroethyl)-1H-pyrrolo[2,3-b]pyridine-2-carboxamide]
